Tests used:
PfA-M1 = target: T1, PfA-M1 (Plasmodium falciparum, UniProt O96935); experiment: Dose-response aminopeptidase assay, Ki via Dixon plots, PfA-M1; format: biochemical; conditions: Dixon plot; substrate 20 and 40 μM
T1 construct: made in house; host or cells: Escherichia coli
T1 sequence (O96935 1-1085): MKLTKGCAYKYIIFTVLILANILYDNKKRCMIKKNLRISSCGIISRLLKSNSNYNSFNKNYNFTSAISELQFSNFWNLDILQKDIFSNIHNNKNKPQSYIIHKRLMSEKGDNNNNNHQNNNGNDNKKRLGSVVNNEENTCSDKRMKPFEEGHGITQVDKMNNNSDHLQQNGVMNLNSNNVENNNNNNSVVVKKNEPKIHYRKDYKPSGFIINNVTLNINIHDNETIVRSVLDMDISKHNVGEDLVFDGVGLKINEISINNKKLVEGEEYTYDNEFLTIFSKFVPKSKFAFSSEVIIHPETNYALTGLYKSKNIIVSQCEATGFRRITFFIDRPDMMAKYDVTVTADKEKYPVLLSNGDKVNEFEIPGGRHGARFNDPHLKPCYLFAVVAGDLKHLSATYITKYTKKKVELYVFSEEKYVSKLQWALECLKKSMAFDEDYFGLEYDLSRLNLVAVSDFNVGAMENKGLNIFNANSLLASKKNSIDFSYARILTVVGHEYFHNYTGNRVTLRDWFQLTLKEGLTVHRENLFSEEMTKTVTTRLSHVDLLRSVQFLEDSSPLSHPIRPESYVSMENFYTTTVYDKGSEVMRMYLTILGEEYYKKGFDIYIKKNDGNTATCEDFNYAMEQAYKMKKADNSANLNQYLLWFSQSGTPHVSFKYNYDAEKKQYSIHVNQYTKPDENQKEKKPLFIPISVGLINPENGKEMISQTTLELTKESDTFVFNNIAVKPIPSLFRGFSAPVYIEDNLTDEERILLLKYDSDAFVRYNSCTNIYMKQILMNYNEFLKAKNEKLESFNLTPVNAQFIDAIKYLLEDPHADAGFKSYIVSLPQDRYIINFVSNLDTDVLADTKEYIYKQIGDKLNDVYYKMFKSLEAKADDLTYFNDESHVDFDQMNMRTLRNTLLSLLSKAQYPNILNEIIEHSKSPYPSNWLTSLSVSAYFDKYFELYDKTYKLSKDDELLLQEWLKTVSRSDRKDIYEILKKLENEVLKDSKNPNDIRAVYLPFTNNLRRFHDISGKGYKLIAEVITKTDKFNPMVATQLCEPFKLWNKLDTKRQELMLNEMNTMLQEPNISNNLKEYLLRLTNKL
Description: (§1) The expression and purification of PfA-M1 and PfA-M17 in Escherichia coli employed a two-step purification process of Ni-NTA-agarose column, followed by size exclusion chromatography on a Superdex 200 16/60 using an AKTAxpress high throughput chromatography system (http://proteinexpress.med.monash.edu.au/index.htm), as previously described. Compounds were purchased from Ambinter (France). Purity (90% or higher) of these compounds was confirmed by vendors. Aminopeptidase activity and K i values for both enzymes were determined as already described.
(§2) The top 12 hits identified in the virtual screen were evaluated for their ability to inhibit both PfA-M1 and PfA-M17 in vitro. We initially tested the total aminopeptidase activity (as reported by the fluorigenic substrate L-leucyl-7-amido-4-methylcoumarin) in the presence of 1 mM compound (Fig 3). In this screen, the “no compound” control was considered 100% activity and bestatin was included as an indicator/control for inhibition. From the results obtained, only compounds 4 (ZINC ID: 25108749) and 12 (ZINC ID: 4090432) were able to inhibit the activity of the enzymes to > 50%. […] The two inhibitory compounds were further analyzed to identify their effects on the individual aminopeptidases. To do this, we performed dose-response assays for each inhibitor with each enzyme, and then determined a K i via Dixon plots (Fig 4). […] Compound 4 was a weaker inhibitor of both enzymes with K i’s in the micromolar range (K i = 30.0 μM for PfA-M1 and 0.7 μM for PfA-M17; Fig 4).
(§3) Fig 4 Dixon plots of 1/V (y axis) versus inhibitor concentration (x axis) for PfA-M1 (top panel) and PfA-M17 (bottom panel). For PfA-M1, substrate concentrations were 20 μM (blue) and 40 μM (red); inhibitor concentration in μM. For PfA-M17, substrate concentrations were 5 μM (magenta) and 10 μM (green); inhibitor concentration in μM or nM as indicated. The point of intersection (-K i) is indicated as a dotted line. (A) PfA-M1 and compound 4. (B) PfA-M1 and compound 12. (C) PfA-M17 and compound 4. (D) PfA-M17 and compound 12

PfA-M17 = target: T2, PfA-M17 (Plasmodium falciparum, UniProt Q8IL11); experiment: Dose-response aminopeptidase assay, Ki via Dixon plots, PfA-M17; format: biochemical; conditions: Dixon plot; substrate 5 and 10 μM
T2 construct: made in house; host or cells: Escherichia coli
T2 sequence (Q8IL11 84-605 limits assumed): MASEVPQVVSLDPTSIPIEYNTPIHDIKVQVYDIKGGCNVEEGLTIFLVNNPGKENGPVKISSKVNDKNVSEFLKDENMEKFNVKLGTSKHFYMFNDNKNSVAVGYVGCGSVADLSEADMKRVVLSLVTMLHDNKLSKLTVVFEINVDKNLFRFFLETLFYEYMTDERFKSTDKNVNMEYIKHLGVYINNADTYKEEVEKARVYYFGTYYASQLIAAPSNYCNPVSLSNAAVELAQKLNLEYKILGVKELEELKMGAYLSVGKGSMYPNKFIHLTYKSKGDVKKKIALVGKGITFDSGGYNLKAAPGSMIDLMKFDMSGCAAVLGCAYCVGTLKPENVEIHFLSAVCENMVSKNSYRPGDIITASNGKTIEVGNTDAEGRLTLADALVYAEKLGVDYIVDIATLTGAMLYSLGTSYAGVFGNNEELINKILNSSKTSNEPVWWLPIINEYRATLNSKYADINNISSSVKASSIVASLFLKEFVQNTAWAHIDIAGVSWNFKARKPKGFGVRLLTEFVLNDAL
Description: as §1, §2, §3

[1] = system: PfA-M1 and PfA-M17 (total aminopeptidase activity); experiment: Total aminopeptidase activity in the presence of 1 mM compound (fluorigenic substrate L-leucyl-7-amido-4-methylcoumarin); format: biochemical, Plasmodium falciparum; conditions: no compound control = 100% activity
Description: as §1
The top 12 hits identified in the virtual screen were evaluated for their ability to inhibit both PfA-M1 and PfA-M17 in vitro. We initially tested the total aminopeptidase activity (as reported by the fluorigenic substrate L-leucyl-7-amido-4-methylcoumarin) in the presence of 1 mM compound (Fig 3). In this screen, the “no compound” control was considered 100% activity and bestatin was included as an indicator/control for inhibition. From the results obtained, only compounds 4 (ZINC ID: 25108749) and 12 (ZINC ID: 4090432) were able to inhibit the activity of the enzymes to > 50%. […] The two inhibitory compounds were further analyzed to identify their effects on the individual aminopeptidases. To do this, we performed dose-response assays for each inhibitor with each enzyme, and then determined a K i via Dixon plots (Fig 4). […]

Row | Ki PfA-M1 (PfA-M1) | Ki PfA-M17 (PfA-M17) | inhibition of total aminopeptidase activity [1] | Ki (PfA-M1) | Ki (PfA-M17) | SMILES
1 | n.i. | n.i. | – | – | – | CCCN(CCC)CP(=O)(O)CCC(=O)O [Compound 7]
2 | n.i. | n.i. | – | – | – | NC(=O)NC(CC(=O)O)C(=O)O (stereo not shown) [Compound 10]
3 | – | – | 95% | 30 µM | 0.7 µM | CC(CP(=O)(O)C(N)c1ccccc1)C(=O)O (stereo not shown) [Compound 4, 3-{[amino(phenyl)methyl](hydroxy)phosphoryl}-methyl propanoic acid]
4 | n.i. | n.i. | – | – | – | O=C(O)CCP(=O)(O)CN1CCCCC1 [Compound 8]
5 | n.i. | n.i. | – | – | – | NCP(=O)(O)CC(CCCC(=O)O)C(=O)O (stereo not shown) [Compound 3]
6 | n.i. | n.i. | – | – | – | O=C(O)C(CC1CCCO1)P(=O)(O)CN1CCCC1=O (stereo not shown) [Compound 9]
7 | n.i. | n.i. | – | – | – | CC(CC(N)C(=O)O)C(=O)O (stereo not shown) [Compound 11]
8 | – | – | 98% | 2.3 µM | 0.017 µM | CC(C)CC(CP(=O)(O)C(N)c1ccccc1)C(=O)O (stereo not shown) [Compound 12]
9 | n.i. | n.i. | – | – | – | CP(=O)(O)CCCCC(N)C(=O)O (stereo not shown) [Compound 1]
10 | n.i. | n.i. | – | – | – | O=C(O)C(Cc1ccco1)P(=O)(O)CN1CCCCC1 (stereo not shown) [Compound 6]

Reference: article PMC4583420, “Identification and Validation of a Potent Dual Inhibitor of the P. falciparum M1 and M17 Aminopeptidases Using Virtual Screening” (PLoS ONE, 2015)
